The values that follow come from PMC12505902, “Inhibitors of trehalose-6-phosphate synthase activity in fungal pathogens compromise thermal tolerance pathways” (mBio, 2025).

Assay [1] addresses T1, 6xHis-CnTps1 (Cryptococcus neoformans var. grubii, UniProt J9VJZ1). Nature of the assay: Glo-melt thermal shift assay. Format: binding. The conditions noted are these: 1 µM protein, 2 mM 4456dh (Fig 2 legend), incubated overnight at 4°C. As to the method:
(§1) Fig 2 4456dh binds Tps1 and inhibits Tps1 activity. (A) Structure of 4456dh. (B and C) Glo-melt thermal shift assays reveal 4456dh destabilizes 6xHis-CaTps1 (B) and 6xHis-CnTps1 (C). The first derivative of the raw data was used to determine the melting temperature of 1 µM 6xHis-CaTps1 (B) and 1 µM 6xHis-CnTps1 (C) treated without (black) or with 2 mM 4456dh (red). […] The resulting dose-response curves were fitted to a one-site binding model to extract Kd values; the SD was calculated using the Kd values from each independent experiment (n = 3). (F) Tps1 enzyme activity assay with 5 µM 6xHis-CaTps1 (F) and 6xHis-CnTps1 (G) ±1 mM 4456dh. Error bars represent SE. Comparison to control, untreated 6xHis-CaTps1, was performed using Student’s t-test; **P < 0.01 and ***P < 0.001.
(§2) Thermal shift assays were completed to determine if 4456dh binds Tps1. […]
(§3) 82 determined by SDS-PAGE analysis, were pooled and concentrated to 1 mg/mL for downstream […]
(§4) 93 The data were acquired with MO.Control 1.5.3 (NanoTemper Technologies GmbH). Recorded
(§5) 94 data were analyzed with MO.Affinity Analysis 2.2.7 (NanoTemper Technologies GmbH). […]
(§6) 100 2X Glo-melt dye. Thermal denaturation was measured using an RT-PCR thermocycler (BioRad) […]
(§7) 102 determined by identifying the inflection point of the derivative data. […]
(§8) 104 The catalytic activity of C. albicans Tps1 and C. neoformans Tps1 was measured via a continuous […]

The target of assay [2] is T2, 6xHis-CaTps1 (Candida albicans, UniProt Q92410).
T2 construct: Briefly, the full-length; thrombin cleavage site (pET-28a linker) (N); made in house; host or cells: E. coli BL21(DE3)pLysS
T2 sequence (Q92410 1-478): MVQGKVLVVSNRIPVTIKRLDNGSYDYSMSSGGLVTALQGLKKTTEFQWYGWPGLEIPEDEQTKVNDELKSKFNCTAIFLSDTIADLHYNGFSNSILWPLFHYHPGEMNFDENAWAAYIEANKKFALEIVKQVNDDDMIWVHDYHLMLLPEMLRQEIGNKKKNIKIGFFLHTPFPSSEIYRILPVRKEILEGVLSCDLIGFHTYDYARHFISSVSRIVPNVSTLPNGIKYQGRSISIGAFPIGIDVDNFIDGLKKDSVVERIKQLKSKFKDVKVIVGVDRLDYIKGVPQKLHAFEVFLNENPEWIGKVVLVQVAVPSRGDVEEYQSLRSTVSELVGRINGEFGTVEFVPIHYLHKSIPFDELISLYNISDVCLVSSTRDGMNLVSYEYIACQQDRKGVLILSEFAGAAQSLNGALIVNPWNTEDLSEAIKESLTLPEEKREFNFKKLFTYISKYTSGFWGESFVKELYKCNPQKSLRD
Description: Glo-melt thermal shift assay. The conditions noted are these: 1 µM protein, 2 mM 4456dh (Fig 2 legend), incubated overnight at 4°C. Format: binding. As to the method: as §1, §2, §3, §4, §5, §6, §7, §8

Assay [3] deals with T1, 6xHis-CnTps1. Nature of the assay: Microscale thermophoresis (MST). The conditions noted are these: label-free MST, one-site binding model, n = 3, SD. As to the method: as §1, with “Comparison to control, untreated 6xHis-CaTps1, was performed using Student’s t-test; **P < 0.01 and ***P < 0.001.” left out
(§9) Given the intrinsic fluorescence of CaTps1 and CnTps1, we were able to detect binding without the use of additional fluorophores. […]
as §3, §4, §5, §6, §7, §8
(§10) 111 reaction rate was recorded using a plate reader (Tecan). […]
(In MST a laser heats a spot of the sample, and binding alters the fluorescence response.)

The target of assay [4] is T2, 6xHis-CaTps1. Description: Microscale thermophoresis (MST). The settings on record: label-free MST, one-site binding model, n = 3, SD. As for the experimental part:
as §1, with “Comparison to control, untreated 6xHis-CaTps1, was performed using Student’s t-test; **P < 0.01 and ***P < 0.001.” left out
as §9, §3, §4, §5, §6, §7, §8, §10

pKd: −log10 of the molar value.

T1 sequence (J9VJZ1 entry or part of it): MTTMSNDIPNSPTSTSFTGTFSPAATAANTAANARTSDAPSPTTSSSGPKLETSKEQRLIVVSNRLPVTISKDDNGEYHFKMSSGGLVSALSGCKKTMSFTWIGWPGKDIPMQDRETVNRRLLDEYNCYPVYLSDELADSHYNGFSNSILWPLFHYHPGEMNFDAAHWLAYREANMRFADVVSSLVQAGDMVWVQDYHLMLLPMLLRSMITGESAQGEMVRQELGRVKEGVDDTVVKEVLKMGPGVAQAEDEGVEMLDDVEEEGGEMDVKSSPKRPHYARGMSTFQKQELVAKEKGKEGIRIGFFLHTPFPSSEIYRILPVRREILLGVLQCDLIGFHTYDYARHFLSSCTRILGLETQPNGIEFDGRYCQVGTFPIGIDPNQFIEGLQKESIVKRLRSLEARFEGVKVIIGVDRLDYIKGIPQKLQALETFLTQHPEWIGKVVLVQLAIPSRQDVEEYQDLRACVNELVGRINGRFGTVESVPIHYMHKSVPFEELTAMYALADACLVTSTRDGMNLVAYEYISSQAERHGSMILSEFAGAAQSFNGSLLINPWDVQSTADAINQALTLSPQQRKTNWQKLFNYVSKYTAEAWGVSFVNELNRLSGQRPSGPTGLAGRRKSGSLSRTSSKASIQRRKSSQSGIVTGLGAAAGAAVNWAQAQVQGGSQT

As for `Cn1cc(-c2csc(NC(=O)Cc3ccccn3)n2)cn1` [Compound 4456dh], the “effect on melting temperature” value on 6xHis-CnTps1 [1] and at 6xHis-CaTps1 [2] was “decreased the melting temperature” throughout. The values for the pKd at 6xHis-CnTps1 [3] and on 6xHis-CaTps1 [4] were 4.48 and 5.15, respectively.
